The values below come from patent US11377425B1, “Small molecule modulators of IL-17” (LEO Pharma A/S, priority 2018, dated 2022).

As usually defined, the EC50 is the concentration at which the effect is half-maximal.

The target of the assay is T1, human IL-17AA (Homo sapiens, UniProt Q16552).
T1 construct: host or cells: HEK (human embryonic kidney) cells
T1 sequence (Q16552 24-155): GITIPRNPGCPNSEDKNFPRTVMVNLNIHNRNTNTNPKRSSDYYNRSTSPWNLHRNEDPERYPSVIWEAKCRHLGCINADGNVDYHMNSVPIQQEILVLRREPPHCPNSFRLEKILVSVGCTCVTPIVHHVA
Briefly: IL-8 release assay in human epithelial keratinocytes adult (HEKa). Format: cell-based. As to conditions: HEKa cells, 3 ng/mL HEK-human IL-17AA + 10 ng/mL human TNFalpha; read-out: Rel EC50 IL-8 release assay. Put shortly:
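Adult human epidermal keratinocytes stimulated 68-72 h at 37 °C with 3 ng/mL HEK-derived human IL-17AA plus 10 ng/mL TNF-alpha (final) in the presence of compound; TNF-alpha alone defines 100% inhibition. Secreted IL-8 measured by HTRF as percent of controls; relative IC50/Emax from four-parameter fit (r^2>0.9), cytotoxicity by PrestoBlue.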

Where only a bound is given, the exact number is not on record here.

As to `Cn1cncc1-c1ccc(NC(=O)[C@@H](NC(=O)OC(C)(C)C)C2CCCC2)cc1` [Example 98, tert-butyl N-[(1S)-1-cyclopentyl-2-[4-(3-methylimidazol-4-yl)anilino]-2-oxo-ethyl]carbamate], the EC50 is over 1000 nM.
The result for `Cc1n[nH]c(C)c1-c1ccc(NC(=O)[C@@H](NC(=O)N2CCCCC2CCCO)C2CCCCC2)cc1` (single isomer, unassigned) [Example 460] reads 100 to 1000 nM.
The result for `Cc1n[nH]c(C)c1-c1ccc(NC(=O)[C@@H](NC(=O)N2CCCC2CCO)C2CCCCC2)cc1` (single isomer, unassigned) [Example 466] reads over 1000 nM.
The result for `CC(C)n1nccc1C(=O)N[C@H](C(=O)Nc1ccc(-c2nncn2C)cc1)C1CCCCCC1` [Example 349, N-[(1S)-1-cycloheptyl-2-[4-(4-methyl-1,2,4-triazol-3-yl)anilino]-2-oxo-ethyl]-2-isopropyl-pyrazole-3-carboxamide] reads 100 to 1000 nM.
As to `Cc1n[nH]c(C)c1-c1ccc(NC(=O)[C@@H](NC(=O)c2ccnn2C(C)CO)C(C2CCC2)C2CCC2)cc1` (single isomer, unassigned) [Example 124], the concentration giving a half-maximal response (EC50) was under 100 nM.
`Cc1n[nH]c(C)c1-c1ccc(NC(=O)C(NC(=O)c2ccnn2C)[C@H]2CCCc3c(F)cccc32)cc1` (single isomer, unassigned) [Example 256]: the EC50 was under 100 nM.
With `Cc1n[nH]c(C)c1-c1ccc(NC(=O)[C@@H](NC(=O)c2ccnn2C(C)C)C(C)C2CCC2)cc1` (single isomer, unassigned) [Example 191] the figure was 100 to 1000 nM; with `Cc1n[nH]c(C)c1-c1ccc(NC(=O)[C@@H](NC(=O)c2cnnn2C)C2CCCCC2)cc1` [Example 60, N-[(1S)-1-cyclohexyl-2-[4-(3,5-dimethyl-1H-pyrazol-4-yl)anilino]-2-oxo-ethyl]-3-methyl-triazole-4-carboxamide], 100 to 1000 nM.
The result for `Cc1n[nH]c(C)c1-c1ccc(NC(=O)[C@@H](NC(=O)c2ccnn2[C@H](C)CO)C(C)C2CCC2)cc1` (single isomer, unassigned) [Example 165] reads 100 to 1000 nM.
Consider `Cc1n[nH]c(C)c1-c1ccc(NC(=O)[C@@H](NC(=O)c2ccnn2CCC(O)C(F)(F)F)C(C2CC2)C2CC2)cc1` (stereo partly drawn) [Example 179, N-[(1S)-1-(dicyclopropylmethyl)-2-[4-(3,5-dimethyl-1H-pyrazol-4-yl)anilino]-2-oxo-ethyl]-2-(4,4,4-trifluoro-3-hydroxy-butyl)pyrazole-3-carboxamide], for which the EC50 is under 100 nM.
Take `CCn1nccc1C(=O)NC(C(=O)Nc1ccc(-c2c(C)n[nH]c2C)cc1)C(C1CCC1)C1CCC1` (single isomer, unassigned) [Example 37, N-[1-[di(cyclobutyl)methyl]-2-[4-(3,5-dimethyl-1H-pyrazol-4-yl)anilino]-2-oxo-ethyl]-2-ethyl-pyrazole-3-carboxamide]: the EC50 lay within 100 to 1000 nM.
The result for `Cc1n[nH]c(C)c1-c1ccc(NC(=O)[C@@H](NC(=O)c2ccnn2CC(C)C)C(C2CC2)C2CC2)cc1` [Example 132, N-[(1S)-1-(dicyclopropylmethyl)-2-[4-(3,5-dimethyl-1H-pyrazol-4-yl)anilino]-2-oxo-ethyl]-2-isobutyl-pyrazole-3-carboxamide] reads under 100 nM; that for `Cc1n[nH]c(N)c1-c1ccc(NC(=O)[C@@H](NC(=O)c2ccnn2C)C2CCCCCC2)cc1` [Example 450, N-[(1S)-2-[4-(5-amino-3-methyl-1H-pyrazol-4-yl)anilino]-1-cycloheptyl-2-oxo-ethyl]-2-methyl-pyrazole-3-carboxamide], 100 to 1000 nM.
The result for `CCn1nccc1C(=O)N[C@H](C(=O)Nc1ccc(-c2c(C)n[nH]c2C)cc1)[C@H]1CC[C@H](C)CC1` [Example 126, Trans N-[(1S)-2-[4-(3,5-dimethyl-1H-pyrazol-4-yl)anilino]-1-(4-methylcyclohexyl)-2-oxo-ethyl]-2-ethyl-pyrazole-3-carboxamide] reads under 100 nM.
Consider `Cc1n[nH]c(C)c1-c1ccc(NC(=O)C(NC(=O)c2ccnn2CCC(C)O)C2CCCCCCC2)cc1` (single isomer, unassigned) [Example 144, N-[1-cyclooctyl-2-[4-(3,5-dimethyl-1H-pyrazol-4-yl)anilino]-2-oxo-ethyl]-2-(3-hydroxybutyl)pyrazole-3-carboxamide], for which the EC50 was under 100 nM.
With `Cc1n[nH]c(C)c1-c1ccc(NC(=O)C(NC(=O)c2ccnn2C(C)C)C(C2CCC2)C2CCC2)cc1` (single isomer, unassigned) [Example 40, N-[1-[di(cyclobutyl)methyl]-2-[4-(3,5-dimethyl-1H-pyrazol-4-yl)anilino]-2-oxo-ethyl]-2-isopropyl-pyrazole-3-carboxamide] the figure was 100 to 1000 nM.
The result for `Cn1cncc1-c1ccc(NC(=O)[C@@H](NC(=O)c2ccnn2C)[C@@H]2CCCc3ccccc32)cc1` [Example 375, 2-Methyl-N-[(1S)-2-[4-(3-methylimidazol-4-yl)anilino]-2-oxo-1-[(1R)-tetralin-1-yl]ethyl]pyrazole-3-carboxamide] reads over 1000 nM.
With `Cn1cncc1-c1ccc(NC(=O)[C@@H](NC(=O)c2ccnn2C)C(c2ccccc2)c2ccccc2)cc1O` [Example 420, N-[(1S)-1-benzhydryl-2-[3-hydroxy-4-(3-methylimidazol-4-yl)anilino]-2-oxo-ethyl]-2-methyl-pyrazole-3-carboxamide] the figure was 100 to 1000 nM; with `Cc1n[nH]c(C)c1-c1ccc(NC(=O)[C@@H](NC(=O)c2ccnn2C)[C@@H]2CCc3c(F)cc(Br)cc32)cc1` [Example 278, N-[(1S)-1-[(1R)-6-bromo-4-fluoro-indan-1-yl]-2-[4 (3,5-dimethyl-1H-pyrazol-4-yl)anilino]-2-oxo-ethyl]-2-methyl-pyrazole-3-carboxamide], 100 to 1000 nM.
Regarding `Cc1n[nH]c(C)c1-c1ccc(NC(=O)[C@@H](NC(=O)c2ccnn2[C@@H](C)CO)C(C2CC2)C2CC2)cc1` (single isomer, unassigned) [Example 119], the EC50 is under 100 nM.
With `Cc1n[nH]c(C)c1-c1ccc(NC(=O)C(NC(=O)c2ccnn2C)C(C)c2ccccc2)cc1` (single isomer, unassigned) [Example 235] the figure was over 1000 nM.
With `Cc1n[nH]c(C)c1-c1ccc(NC(=O)[C@@H](NC(=O)c2ccnn2C)[C@H]2CCCc3ccc(C#N)cc32)cc1` [Example 82, N-[(1S)-1-[(1S)-7-cyanotetralin-1-yl]-2-[4-(3,5-dimethyl-1H-pyrazol-4-yl)anilino]-2-oxo-ethyl]-2-methyl-pyrazole-3-carboxamide] the figure was 100 to 1000 nM.
As for `CC(C)c1n[nH]c(C(C)C)c1-c1ccc(NC(=O)[C@@H](NC(=O)c2ccnn2C(C)C)C(C2CC2)C2CC2)cc1` [Example 387, N-[(1S)-1-(dicyclopropylmethyl)-2-[4-(3,5-diisopropyl-1H-pyrazol-4-yl)anilino]-2-oxo-ethyl]-2-isopropyl-pyrazole-3-carboxamide], the half-maximal effective concentration (EC50) is under 100 nM.
Take `Cc1n[nH]c(C)c1-c1ccc(NC(=O)[C@@H](NC(=O)c2ccnn2CCCO)[C@H]2CC[C@H](C)CC2)cc1` [Example 208, N-[(1S)-2-[4-(3,5-dimethyl-1H-pyrazol-4-yl)anilino]-1-(trans-4-methylcyclohexyl)-2-oxo-ethyl]-2-(3-hydroxypropyl)pyrazole-3-carboxamide]: the EC50 was under 100 nM.
